Measurements published in US20200375958A1, “MEMBRANE ACTIVE MOLECULES” (priority 2017, published 2020).
Where “and” joins values, the source holds several entries; their conditions need not be identical. Equal entries are not always repeated.

Key:
[1] = system: Tadpoles; assay: Tadpole anesthesia test (movement suppressed on contact with rod); type: in vivo; conditions: read-out: Movement suppressed (%)
Description: Tadpoles were placed in a petri dish containing aquarium water. Four to eight tadpoles were placed in each petri dish. The aquarium water contained the specified test compound at the listed concentration. When the tadpoles stopped moving, a plastic rod was used to elicit motion once again by contact between the rod and tadpole. […] From this and the number of subjects, the percent of tadpoles in which movement was suppressed were calculated.
After 1 to 30 minutes, they were again contacted with a rod to ensure the anesthetic effect had worn off.
In some examples, subanesthetic concentrations of ethanol were added into the aquarium water. Tadpoles in which movement was prevented with exposure to a test compound and ethanol but not with exposure to a test compound alone were classified as partial anesthetics.

[2] = system: CF-1 mice; assay: Anticonvulsant test in mice: metrazol (pentylenetetrazol) tail vein infusion, time to twitch and seizure; type: in vivo, mouse; conditions: 8 M butyric acid solution plus metrazol
Description: CF-1 mice were used in this study. Number 20 PE tubing to cannulate a mouse tail vein was used. An infusion pump was used to deliver a solution at a rate of 0.34 mL/min. A hemostat was used to prevent backflow in the PE tubing before the experiment stated. To begin the experiment, the hemostat that was clamped to the PE 20 tubing was removed, the infusion of the solution was started into the tail IV of the mouse, and the timer was started.
The study reflects the time in seconds from the start of the infusion to the time of twitch and onset of seizure, or 90 seconds, whichever is sooner. When the seizure occurs, the infusion is turned off.
As a control, metrazol (pentylenetetrazol) in a 0.5% solution (5 mg/mL) in water was prepared. Pentylenetetrazol is used as a control to study seizure phenomena in and to identify compounds that may control seizure susceptibility. Solutions of 8 M butyric acid and 1.5 M 3-hydroxybutyric acid were made.
The time to twitch and time to seizure of the mouse in seconds is recorded in Tables 3-5, below.

[3] = system: mouse
Description: Butyric acid was dissolved in water to form an 8 M solution. 0.5 mL of the 8 M solution of butyric acid was injected subcutaneously (at the back of the neck) into the mouse.
3-hydroxybutyric acid was dissolved in water to form 1 M, 1.5 M, and 2 M solutions. 0.2 mL of a 1.5 M solution of 3-hydroxybutyric acid was injected into a tail vein of a CD-1 mouse. […] This was repeated for at least 2 more times on subsequent days.
Ethylmalonic acid was dissolved in water to form 2 M, 3 M, and 4 M solutions. 0.2 mL of a 3 M solution of ethylmalonic acid was injected into a tail vein of a mouse. […] This was repeated for at least 2 more times on subsequent days.
Ethylmalonic acid was dissolved in water to form a 4 M solution. 0.5 mL of the 4 M solution of ethylmalonic acid was injected subcutaneously into the mouse.

[4] = 0.5 mL of 8 M solution in water, subcutaneous (back of the neck)

CCCC(=O)O [Butyric acid]
responders at 62500 µM [1]: 100% | responders at 125000 µM [1]: 100% | responders at 250000 µM [1]: 100% | responders at 500000 µM [1]: 100% | Butyric Acid and Metrazol Time to Seizures (seconds), Avg. ([2]; average of 13 mice): 51.2 s | Butyric Acid and Metrazol Time to Twitch (seconds), Avg. ([2]; average of 13 mice): 41.4 s | Butyric Acid and Metrazol Time to Seizures ([2]; individual mice): 51 seconds and 50 seconds (2×) and 47 seconds and 57 seconds (3×) and 42 seconds and 66 seconds and 41 seconds and 44 seconds and 38 seconds and 65 seconds | Butyric Acid and Metrazol Time to Twitch ([2]; individual mice): 38 seconds and 42 seconds and 44 seconds and 50 seconds and 34 seconds (2×) and 53 seconds (2×) and 48 seconds and 36 seconds (2×) and 35 seconds (2×) | Lethality to the mouse ([3]; 0.2 mL of 8 M solution in water, intravenous, tail vein): lethal | Anesthetic effect on the mouse [3, 4]: became anesthetized or lost consciousness | Time until mouse became anesthetized or lost consciousness [3, 4]: 10 to 15 min | Time until mouse woke up [3, 4]: several hours
